Data published in the OligoGym collection.
Where “and” joins values, the source holds several entries; their conditions need not be identical. Equal values may be shown once. After the bases stand the sugars from the 5' end (letter, count) and the backbone: PS all phosphorothioate, else s phosphorothioate and o phosphodiester by linkage. Methylation of C is not given here. e = 2'-O-(2-methoxyethyl) (MOE); k = constrained ethyl (cEt); d = 2'-deoxy (DNA)

Assays:
[1] = biological target: KRAS; settings: ASO
[2] = biological target: IRF5; settings: ASO

Sequence	target mRNA inhibition ([1]; A431, 2 µM)	other results
AAAAAAAAAATTAATG (sugars k3 d10 k3, PS)	6%	–
AAAAAAAATTAATGTC (sugars k3 d10 k3, PS)	14%	–
AAACAAATGCTAATAA (sugars k3 d10 k3, PS)	9%	–
AAACGAGAATGGATAT (sugars k3 d10 k3, PS)	12%	–
AAAGCTATTAGGAGTC (sugars k3 d10 k3, PS)	65%	–
AAAGTTCACATAAAGG (sugars k3 d10 k3, PS)	38%	–
AAATCTTATGGTTAGG (sugars k3 d10 k3, PS)	34%	–
AAATTGTGCAATGGTG (sugars k3 d10 k3, PS)	48%	–
AAGCTATTAGGAGTCT (sugars k3 d10 k3, PS)	65%	–
AATCCATTTATGTGAC (sugars k3 d10 k3, PS)	26%	–
AATTAATCCATTTATG (sugars k3 d10 k3, PS)	16%	–
AATTACTTATGCAGAG (sugars k3 d10 k3, PS)	44%	–
ACCAGTGTTAAGAGAA (sugars kkkddddddddkdkdk, PS)	50%	–
ACCATTCAAAGTTCAC (sugars k3 d10 k3, PS)	34%	–
ACCATTCAAAGTTCAC (sugars kdddddddddkekeke, PS)	15%	–
ACCATTCAAAGTTCAC (sugars kkddddddddddkeke, PS)	41%	–
ACCATTCAAAGTTCAC (sugars kkddddddddkekekk, PS)	7%	–
ACCATTCAAAGTTCAC (sugars kkkddddddddkekek, PS)	26%	–
ACTTATGCAGAGAAAA (sugars k3 d10 k3, PS)	37%	–
ACTTCATTGTTTAAAA (sugars k3 d10 k3, PS)	0%	–
AGACTTGAAAAGTGTT (sugars k3 d10 k3, PS)	28%	–
AGATTGTGCTGAGCTT (sugars kdddddddddkekeke, PS)	0%	–
AGATTGTGCTGAGCTT (sugars kkddddddddddkeke, PS)	40%	–

Sequence	target mRNA inhibition ([1]; A431, 2 µM)	other results
AGGAGTCTTTATAGTA (sugars kkdddddddddkekek, PS)	31%	–
AGGTAAAAGCTAACAG (sugars k3 d10 k3, PS)	41%	target mRNA inhibition ([1]; A431, 0.037 µM): 46%; target mRNA inhibition ([1]; NCI-H460, 0.037 µM): 37.3%
AGTCCAGTGATACTTT (sugars k3 d10 k3, PS)	8%	–
AGTGATTAGGTCAAAT (sugars kddddddddddkekek, PS)	21%	–
AGTGATTAGGTCAAAT (sugars kdddddddddkekeke, PS)	12%	–
AGTGTGACTCAGTTAA (sugars kkddddddddkekekk, PS)	47%	–
ATAATAGTTTCCATTG (sugars k3 d10 k3, PS)	8%	–
ATAATGGTGAATATCT (sugars k3 d10 k3, PS)	41%	–
ATCCAGTATTAACACA (sugars k3 d10 k3, PS)	0%	–
ATCTTATGGTTAGGGG (sugars k3 d10 k3, PS)	20%	–
ATGACTAATAGCAGTG (sugars k3 d10 k3, PS)	49%	–
ATGGTGTAACATAGGT (sugars k3 d9 k3 e1, PS)	47%	–
ATGGTTAGGGGAATTA (sugars k3 d10 k3, PS)	33%	–
ATGTAAATATAGCCCC (sugars k3 d10 k3, PS)	28%	–
ATTGTGCTGAGCTTGA (sugars k3 d10 k3, PS)	51%	–
CAAAGTTCACATAAAG (sugars k3 d10 k3, PS)	21%	–
CAGTGTGACTCAGTTA (sugars k3 d10 k3, PS)	53%	–
CAGTGTTAAGAGAACT (sugars kkddddddddkekekk, PS)	35%	–
CATTCAAAGTTCACAT (sugars kdddddddddkekeke, PS)	24%	–
CATTCAAAGTTCACAT (sugars kkddddddddkekekk, PS)	96%	target mRNA inhibition ([1]; A431, 0.185 µM): 5%; target mRNA inhibition ([1]; A431, 0.556 µM): 7%; target mRNA inhibition ([1]; A431, 1.667 µM): 9%; target mRNA inhibition ([1]; A431, 5 µM): 16%
CATTGTTTAAAAAAAA (sugars k3 d10 k3, PS)	0%	–
CATTTATGTGACTAGA (sugars kddddddddddkekek, PS)	24%	–
CCATTCAAAGTTCACA (sugars kkdddddddddkdkdk, PS)	31%	–

Sequence	target mRNA inhibition ([1]; A431, 2 µM)	other results
CCATTCAAAGTTCACA (sugars kkddddddddkekekk, PS)	57%	target mRNA inhibition ([1]; A431, 0.185 µM): 0%; target mRNA inhibition ([1]; A431, 0.556 µM): 19%; target mRNA inhibition ([1]; A431, 1.667 µM): 31%; target mRNA inhibition ([1]; A431, 5 µM): 39%
CCATTCAAAGTTCACA (sugars kkkddddddddkekek, PS)	39%	–
CCATTTATGTGACTAG (sugars k3 d9 k3 e1, PS)	49%	target mRNA inhibition ([1]; A431, 0.185 µM): 28%; target mRNA inhibition ([1]; A431, 0.556 µM): 47%; target mRNA inhibition ([1]; A431, 1.667 µM): 53%; target mRNA inhibition ([1]; A431, 5 µM): 66%
CCATTTATGTGACTAG (sugars k3 d10 k3, PS)	94% and 75%	target mRNA inhibition ([1]; A431, 0.125 µM): 70% and 67%; target mRNA inhibition ([1]; A431, 0.185 µM): 30% and 14%; target mRNA inhibition ([1]; A431, 0.556 µM): 56% and 35%; target mRNA inhibition ([1]; A431, 5 µM): 83% and 72%; target mRNA inhibition ([1]; NCI-H460, 0.037 µM): 52.4%
CCATTTATGTGACTAG (sugars kkddddddddddkeke, PS)	46%	–
CTCTCTATGAAAGCTC (sugars k3 d10 k3, PS)	29%	–
CTGAATTAGTCTCCAT (sugars k3 d10 k3, PS)	48%	–
CTTGATTTGTCAGCAG (sugars k3 d10 k3, PS)	51% and 44%	–
CTTGATTTGTCAGCAG (sugars kddddddddddkekek, PS)	45%	target mRNA inhibition ([1]; A431, 0.037 µM): 62%
CTTGATTTGTCAGCAG (sugars kdddddddddkekeke, PS)	44%	target mRNA inhibition ([1]; A431, 0.037 µM): 51%
CTTGATTTGTCAGCAG (sugars kkddddddddddkeke, PS)	54%	–
CTTGATTTGTCAGCAG (sugars kkddddddddkekekk, PS)	33%	target mRNA inhibition ([1]; A431, 0.037 µM): 55%
CTTGATTTGTCAGCAG (sugars kkkdddddddddkeke, PS)	46%	–
CTTTTAATGTCACAAG (sugars k3 d10 k3, PS)	9%	–
GAAAAGTGTTTATGCA (sugars k3 d10 k3, PS)	60%	–
GAGAATGGATATTCAA (sugars k3 d10 k3, PS)	8%	–
GAGTCTTTATAGTAAT (sugars kdddddddddkekeke, PS)	21%	–
GATTGTGCTGAGCTTG (sugars k3 d9 k3 e1, PS)	30%	–
GATTGTGCTGAGCTTG (sugars k3 d10 k3, PS)	63%	–
GCATTGCTAGTTCAAA (sugars k3 d10 k3, PS)	46%	–
GCTATAATAATCCCCA (sugars k3 d10 k3, PS)	56%	target mRNA inhibition ([1]; A431, 0.185 µM): 1%; target mRNA inhibition ([1]; A431, 0.556 µM): 24%; target mRNA inhibition ([1]; A431, 1.667 µM): 55%; target mRNA inhibition ([1]; A431, 5 µM): 68%
GCTGTGAAACTCTCTA (sugars k3 d10 k3, PS)	42%	–
GCTGTGAAACTCTCTA (sugars kddddddddddkekek, PS)	41%	–

Sequence	target mRNA inhibition ([1]; A431, 2 µM)	other results
GCTGTGAAACTCTCTA (sugars kkddddddddkekekk, PS)	16%	–
GGTTAGGGGAATTACA (sugars k3 d10 k3, PS)	26%	–
GTAATTAATCCATTTA (sugars k3 d10 k3, PS)	15%	–
GTAGGGCATTTCTGAT (sugars k3 d10 k3, PS)	14%	–
GTATCTTGTTGAGCTA (sugars k3 d10 k3, PS)	56%	–
GTCCAGTGATACTTTC (sugars kkdddddddddkekek, PS)	43%	–
GTCCAGTGATACTTTC (sugars kkkddddddddkekek, PS)	21%	–
GTGAATATCTTCAAAT (sugars k3 d10 k3, PS)	0%	–
GTGTTTATGCAATGTT (sugars k3 d10 k3, PS)	–	target mRNA inhibition ([1]; A431, 0.125 µM): 83%; target mRNA inhibition ([1]; A431, 0.185 µM): 31%; target mRNA inhibition ([1]; A431, 0.556 µM): 52%; target mRNA inhibition ([1]; A431, 1.667 µM): 77%; target mRNA inhibition ([1]; A431, 5 µM): 89%; target mRNA inhibition ([1]; NCI-H460, 0.037 µM): 76.8%
GTGTTTATGCAATGTT (sugars kkddddddddddkeke, PS)	73%	target mRNA inhibition ([1]; A431, 0.185 µM): 44%; target mRNA inhibition ([1]; A431, 0.556 µM): 71%; target mRNA inhibition ([1]; A431, 1.667 µM): 83%; target mRNA inhibition ([1]; A431, 5 µM): 92%
TTCTGCAGGGAGTCAG (sugars kddddddddddkekek, PS)	–	target mRNA inhibition ([2]; KARPAS-229, 4 µM): 4%
TTCTGCAGGGAGTCAG (sugars kdddddddddkekeke, PS)	–	target mRNA inhibition ([2]; KARPAS-229, 4 µM): 0%
TTCTTGGACTCTCAAG (sugars kkddddddddkekekk, PS)	–	target mRNA inhibition ([2]; KARPAS-229, 4 µM): 0%
TTCTTGTCTAGTGTCA (sugars k3 d10 k3, PS)	–	target mRNA inhibition ([2]; KARPAS-229, 4 µM): 49%
TTGAATTTTGTGACTG (sugars k3 d10 k3, PS)	–	target mRNA inhibition ([2]; KARPAS-229, 4 µM): 45%
TTGCCTTCTGCAGGGA (sugars k3 d10 k3, PS)	–	target mRNA inhibition ([2]; KARPAS-229, 4 µM): 0%
TTGTCTAGTGTCATGG (sugars k3 d10 k3, PS)	–	target mRNA inhibition ([2]; KARPAS-229, 0.44444 µM): 37%; target mRNA inhibition ([2]; KARPAS-229, 4 µM): 60% and 70%; target mRNA inhibition ([2]; KARPAS-229, 12 µM): 84%
TTGTCTAGTGTCATGG (sugars kekdddddddddeekk, PS)	–	target mRNA inhibition ([2]; KARPAS-229, 4 µM): 55%
TTGTCTAGTGTCATGG (sugars kkddddddddddkeke, PS)	–	target mRNA inhibition ([2]; KARPAS-229, 4 µM): 38%
TTGTCTAGTGTCATGG (sugars kkkdddddddddkeke, PS)	–	target mRNA inhibition ([2]; KARPAS-229, 4 µM): 39%
TTGTCTAGTGTCATGG (sugars kkkddddddddkdkdk, PS)	–	target mRNA inhibition ([2]; KARPAS-229, 4 µM): 36%
TTGTGACTGTATTACC (sugars k3 d10 k3, PS)	–	target mRNA inhibition ([2]; KARPAS-229, 4 µM): 56%
